Source: the supplement of paper PMC10307832

Tests used:
Experiment in all cases: relative viability (nuclei count vs DMSO), 5 days (fraction); higher = more cells survive
[1] = compound: CNC(=O)c1cc(Oc2ccc(NC(=O)Nc3ccc(Cl)c(C(F)(F)F)c3)cc2)ccn1 [Sorafenib]
How it was run: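 Lung cancer cell lines received five library-drug doses (not always all listed) spaced by √10, pinned on vehicle-anchored 1536-well plates after an overnight stay at 37 °C. Five days later, with no medium change, nuclei were Hoechst-stained, imaged at 4× and counted with MetaXpress. Viability is treated-well nuclei relative to vehicle-well nuclei, as a median across plates. Passing plates had control CV below 25% and at least one doubling.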

[2] = compound: CNC(=O)c1cc(Oc2ccc(NC(=O)Nc3ccc(Cl)c(C(F)(F)F)c3)cc2)ccn1 [Sorafenib] + Nc1ncn([C@H]2C[C@H](O)[C@@H](CO)O2)c(=O)n1 [Decitabine] (partner 2 µM)
How it was run: (§1)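 After 5 days of treatment, lung cancer cells in 1536-well plates were fixed and stained in a single step (final 0.05% Triton X-100, 1% formaldehyde, 1 ug/ml Hoechst) and their nuclei counted on 4× images. Treatment had been applied by pin tool the day after seeding as one drug alone or as a fixed anchor-drug dose with five library-drug doses (not always all listed) in √10 steps. Relative viability is the nuclei count of treated wells divided by that of vehicle wells, and values are medians of duplicate plates.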

[3] = compound: CNC(=O)c1cc(Oc2ccc(NC(=O)Nc3ccc(Cl)c(C(F)(F)F)c3)cc2)ccn1 [Sorafenib] + CCNC(=O)c1noc(-c2cc(C(C)C)c(O)cc2O)c1-c1ccc(CN2CCOCC2)cc1 [Luminespib] (partner 0.01 µM)
How it was run: as §1

[4] = compound: CNC(=O)c1cc(Oc2ccc(NC(=O)Nc3ccc(Cl)c(C(F)(F)F)c3)cc2)ccn1 [Sorafenib] + O=C(c1cc(Cc2n[nH]c(=O)c3ccccc23)ccc1F)N1CCN(C(=O)C2CC2)CC1 [Olaparib] (partner 8 µM)
How it was run: as §1

[5] = compound: CNC(=O)c1cc(Oc2ccc(NC(=O)Nc3ccc(Cl)c(C(F)(F)F)c3)cc2)ccn1 [Sorafenib] + Cc1cc(Nc2cc(N3CCN(C)CC3)nc(Sc3ccc(NC(=O)C4CC4)cc3)n2)n[nH]1 [Tozasertib] (partner 0.1 µM)
How it was run: as §1

[6] = compound: CNC(=O)c1cc(Oc2ccc(NC(=O)Nc3ccc(Cl)c(C(F)(F)F)c3)cc2)ccn1 [Sorafenib] + CC(=O)c1c(C)c2cnc(Nc3ccc(N4CCNCC4)cn3)nc2n(C2CCCC2)c1=O [Palbociclib] (partner 0.5 µM)
How it was run: as §1

[7] = compound: CNC(=O)c1cc(Oc2ccc(NC(=O)Nc3ccc(Cl)c(C(F)(F)F)c3)cc2)ccn1 [Sorafenib] + Nc1nc2[nH]cc(CCc3ccc(C(=O)N[C@@H](CCC(=O)O)C(=O)O)cc3)c2c(=O)[nH]1 [Pemetrexed] (partner 0.2 µM)
How it was run: as §1

[8] = compound: CNC(=O)c1cc(Oc2ccc(NC(=O)Nc3ccc(Cl)c(C(F)(F)F)c3)cc2)ccn1 [Sorafenib] + CC(=O)Nc1cccc(-n2c(=O)n(C3CC3)c(=O)c3c(Nc4ccc(I)cc4F)n(C)c(=O)c(C)c32)c1 [Trametinib] (partner 0.02 µM)
How it was run: as §1

[9] = compound: CNC(=O)c1cc(Oc2ccc(NC(=O)Nc3ccc(Cl)c(C(F)(F)F)c3)cc2)ccn1 [Sorafenib] + NC(=O)Nc1cc(-c2cccc(F)c2)sc1C(=O)N[C@H]1CCCNC1 [AZD7762] (partner 0.2 µM)
How it was run: as §1

[10] = compound: CNC(=O)c1cc(Oc2ccc(NC(=O)Nc3ccc(Cl)c(C(F)(F)F)c3)cc2)ccn1 [Sorafenib] + N=C(N)NC(=N)NCCc1ccccc1 [Phenformin] (partner 250 µM)
How it was run: as §1

[11] = compound: CNC(=O)c1cc(Oc2ccc(NC(=O)Nc3ccc(Cl)c(C(F)(F)F)c3)cc2)ccn1 [Sorafenib] + O=C(CCCCCCC(=O)Nc1ccccc1)NO [Vorinostat] (partner 1 µM)
How it was run: as §1

[12] = compound: CNC(=O)c1cc(Oc2ccc(NC(=O)Nc3ccc(Cl)c(C(F)(F)F)c3)cc2)ccn1 [Sorafenib] + Cc1nc(Nc2ncc(C(=O)Nc3c(C)cccc3Cl)s2)cc(N2CCN(CCO)CC2)n1 [Dasatinib] (partner 0.075 µM)
How it was run: as §1

[13] = compound: CNC(=O)c1cc(Oc2ccc(NC(=O)Nc3ccc(Cl)c(C(F)(F)F)c3)cc2)ccn1 [Sorafenib] + COc1cccc2cc(-c3nc([C@H]4CC[C@H](C(=O)O)CC4)n4ncnc(N)c34)[nH]c12 [OSI-027] (partner 0.5 µM)
How it was run: as §1

Question: Which results are given for NCI-H522?
Answer: relative viability ([1]; 0.08 µM): 1.04; relative viability ([1]; 0.253 µM): 0.877; relative viability ([1]; 2.53 µM): 0.865; relative viability ([1]; 8 µM): 0.648; relative viability ([2]; first compound 0.08 µM): 0.645; relative viability ([2]; first compound 0.253 µM): 0.686; relative viability ([2]; first compound 2.53 µM): 0.657; relative viability ([2]; first compound 8 µM): 0.648; relative viability ([3]; first compound 0.08 µM): 1.28; relative viability ([3]; first compound 0.253 µM): 1.19; relative viability ([3]; first compound 2.53 µM): 0.929; relative viability ([3]; first compound 8 µM): 0.992; relative viability ([4]; first compound 0.08 µM): 0.68; relative viability ([4]; first compound 0.253 µM): 0.634; relative viability ([4]; first compound 2.53 µM): 0.775; relative viability ([4]; first compound 8 µM): 0.541; relative viability ([5]; first compound 0.08 µM): 0.626; relative viability ([5]; first compound 0.253 µM): 0.596; relative viability ([5]; first compound 2.53 µM): 0.588; relative viability ([5]; first compound 8 µM): 0.523; relative viability ([6]; first compound 0.08 µM): 0.988; relative viability ([6]; first compound 0.253 µM): 0.92; relative viability ([6]; first compound 2.53 µM): 1.2; relative viability ([6]; first compound 8 µM): 0.591; relative viability ([7]; first compound 0.08 µM): 1.02; relative viability ([7]; first compound 0.253 µM): 0.782; relative viability ([7]; first compound 2.53 µM): 0.863; relative viability ([7]; first compound 8 µM): 0.883; relative viability ([8]; first compound 0.08 µM): 0.789; relative viability ([8]; first compound 0.253 µM): 0.664; relative viability ([8]; first compound 2.53 µM): 0.748; relative viability ([8]; first compound 8 µM): 0.58; relative viability ([9]; first compound 0.08 µM): 1.1; relative viability ([9]; first compound 0.253 µM): 0.556; relative viability ([9]; first compound 2.53 µM): 0.874; relative viability ([9]; first compound 8 µM): 0.723; relative viability ([10]; first compound 0.08 µM): 0.512; relative viability ([10]; first compound 0.253 µM): 0.526; relative viability ([10]; first compound 2.53 µM): 0.695; relative viability ([10]; first compound 8 µM): 0.478; relative viability ([11]; first compound 0.08 µM): 1.02; relative viability ([11]; first compound 0.253 µM): 0.81; relative viability ([11]; first compound 2.53 µM): 0.89; relative viability ([11]; first compound 8 µM): 0.741; relative viability ([12]; first compound 0.08 µM): 0.904; relative viability ([12]; first compound 2.53 µM): 0.859; relative viability ([12]; first compound 8 µM): 0.772; relative viability ([13]; first compound 0.08 µM): 0.649; relative viability ([13]; first compound 0.253 µM): 0.631; relative viability ([13]; first compound 2.53 µM): 0.672; relative viability ([13]; first compound 8 µM): 0.552
